Experiment: in vitro
Details: human, hela cells, % viability

Compound | viability at 28.5 h, 10 µM (bulk resorufin, single well) | viability at 28.5 h, 10 µM
Cc1ccc(N2C(=O)NC(=O)/C(=C\c3ccc(OCC(=O)O)c(Br)c3)C2=O)cc1C [CBK263899] | 84% | –
COCC(=O)Nc1ccc(Cl)c(NC(=O)NCCN2CCCC2=O)c1 [CBK306663] | – | 87.9%
c1csc(-c2nn3c(Cn4cnc5ccccc54)nnc3s2)c1 [CBK268262] | – | 87.9%
CC(NC(=O)CCN1CCN(C)CC1)c1cc2cc(Cl)ccc2o1 (stereo not shown) [CBK281601] | – | 102%
Cc1cc(C2CCCCCN2C(=O)c2cccc(F)c2)on1 (stereo not shown) [CBK285448] | – | 96.8%
c1ccc(CCNc2nccnc2-c2ccoc2)nc1 [CBK036790] | – | 86.1%
COc1ccc(C(=O)N2CCN(Cc3ccc(SC)cc3)CC2)cc1 [CBK058613] | – | 112%
Fc1ccccc1C1CCN(c2cncc(N3CCNCC3)n2)CC1 [CBK172236G] | – | 122%
Nc1cc(-c2ccco2)nn(Cc2c(Cl)cccc2Cl)c1=O [CBK282880] | – | 112%
COC(=O)c1cccc(OCC(O)Cn2ccnc2)c1 (stereo not shown) [CBK307408] | – | 102%
O=S(=O)(O)c1cc(S(=O)(=O)O)c2cc(O)c(S(=O)(=O)O)cc2c1 [CBK278319N] | – | 96.7%
O=C(NCCc1c[nH]cn1)c1ccccc1-n1cccc1 [CBK161000] | – | 92.4%
COc1cnc(-c2cnn(C)c2)c(NC(=O)Cc2ccccc2)n1 [CBK145327] | – | 101%
O=C(O)c1cc(N/N=C/c2ccc(-c3ccc(Cl)c(C(=O)O)c3)o2)ccc1Cl [CBK262483] | – | 88.8%
COc1cc(C(=O)N2CCC(N3C(=O)Cc4ccccc43)CC2)ccc1C [CBK155465] | 84.2% | –
c1cncc(CNc2nc(-c3cccs3)cn3ccnc23)c1 [CBK066687] | – | 104%
CSCCC(=O)NCCc1c[nH]c2ccc(Cl)cc12 [CBK159775] | – | 95.6%
Cc1ncsc1CCOc1nccnc1NC(C)C [CBK115728] | – | 106%
COCCn1c(=O)n(Cc2ccc(F)cc2)c2cccnc21 [CBK283886] | – | 81%
CC(=O)Nc1cccc(NC(=O)c2ccc(CN3CCCCC3)cc2)c1 [CBK295596] | – | 103%
COc1cc(CN2CCN(c3cc(C)ccc3C)CC2)cc([N+](=O)[O-])c1O [CBK261868] | – | 95.5%
CC(C)(CN)CN(Cc1ccccc1C(F)(F)F)C(=O)NCc1ccc(F)cc1 [CBK002471C] | – | 87.8%

Compound | viability at 28.5 h, 10 µM (bulk resorufin, single well) | viability at 28.5 h, 10 µM
C=CCNC(CC(=O)Nc1ccc(C)c(Cl)c1)C(=O)O (stereo not shown) [CBK266892] | – | 92.8%
Cc1nnnn1-c1cc(NC(=O)NCCN2CCOCC2)ccc1F [CBK306246] | – | 89.2%
O=C(NCc1ccccn1)c1cncc(Br)c1 [CBK265226] | – | 88.1%
Cc1ccc(-c2cc(C(=O)Nc3ccc(S(=O)(=O)Nc4nccs4)cc3)c3ccccc3n2)c(C)c1 [CBK262638] | – | 85.3%
O=C(Nc1cccc(-c2nc3ccccc3s2)c1)c1ccc(S(=O)(=O)N2CCCC2)cc1 [CBK261787] | – | 96.7%
Cc1cccc(C)c1NC(=O)C(C#N)C(=O)c1nn(-c2ccccc2)c2c1CSc1ccccc1-2 (stereo not shown) [CBK017678] | – | 81.8%
Cc1ccc(-c2nnc3ccc(SCC(=O)NC4CCCC4)nn23)cc1 [CBK287523] | – | 88.8%
Cc1ccc(NC(=O)CCC(=O)N2CCC3(CC2)CC(=O)c2ccccc2O3)cc1 [CBK156524] | – | 94.1%
COc1nccc(N2CCN(C(=O)C3CC3)CC(O)C2)c1C#N (stereo not shown) [CBK306613] | – | 79.1%
COc1cccc(OC)c1OCCN1CCC(C(=O)NC(c2ccccc2)c2ccccn2)CC1 (stereo not shown) [CBK148419] | – | 96.3%
Cc1ccc(-c2ncc3c(=O)[nH]c(=O)n(C)c3n2)cc1 [CBK288553] | – | 89.6%
O=C(NC(=S)Nc1cccc(-c2nc3ccccc3s2)c1)c1cc([N+](=O)[O-])ccc1N1CCOCC1 [CBK268789] | – | 103%
O=C(NC(=S)Nc1cccc(Cl)c1)c1cncc(Br)c1 [CBK264618] | – | 94.1%
O=S(=O)(Cc1ccc(Cl)cc1)Nc1cccc2[nH]ccc12 [CBK153531] | – | 99.5%
O=C(O)c1ccc(CNC(=S)NCC2CCCO2)cc1 (stereo not shown) [CBK266908] | – | 98.2%
COc1cccc2ncn(CCCn3cccn3)c(=O)c12 [CBK307094] | – | 89.7%
O=C(COC(=O)c1cc(S(=O)(=O)N2CCCCC2)ccc1Cl)c1ccccc1 [CBK261657] | – | 86%
NS(=O)(=O)c1ccc(NC(=O)CCSc2ccc(Cl)cc2)cc1 [CBK269322] | – | 94.4%
Cc1cc(C)n(-c2ccc(N3CCC4(CC3)OCCO4)nn2)n1 [CBK305255] | – | 97.8%
Cc1cn([C@H]2C[C@@H](O)[C@@H](CO)O2)c(N)nc1=O [CBK201327] | – | 100%
Nc1ccc(S(=O)(=O)c2ccc(-n3c(=O)c4cc5c(=O)n(-c6ccc(S(=O)(=O)c7ccc(N)cc7)cc6)c(=O)c5cc4c3=O)cc2)cc1 [CBK261490] | – | 92%
CCOc1ccc(CNc2sc3c(c2C(=O)Nc2ccc(OC)cc2)CCC3)cc1 [CBK294473] | – | 80.6%

Compound | viability at 28.5 h, 10 µM (bulk resorufin, single well) | viability at 28.5 h, 10 µM
CCCCCOc1ccc(Nc2cc(-c3ccc(N(C)C)cc3)ncn2)cc1 [CBK090889] | – | 106%
CC(=O)Nc1nc(OCC(F)(F)F)cnc1-c1ccc2c(c1)OCO2 [CBK145427] | – | 91.8%
CCNC(=O)Nc1ccc(-c2ccc(S(C)(=O)=O)cc2)c2ccccc12 [CBK083728] | – | 88.1%
O=C(NC1CCCCC1)O[C@@H]1CO[C@H]2[C@@H]1OC[C@@H]2NS(=O)(=O)Cc1ccccc1 [CBK289467] | – | 87.8%
CC(C)Nc1cccnc1N1CCN(C(=O)c2cc3cc(NS(=O)(=O)CCc4ccncc4)ccc3[nH]2)CC1 [CBK012661] | – | 95.8%
NS(=O)(=O)c1ccc(NC(=S)NC(=O)c2cccc3c(Cl)cccc23)cc1 [CBK268814] | – | 99.5%
CC(C)(C)C(=O)NC1(C(F)(F)F)N=C(c2ccccc2)NC1=O (stereo not shown) [CBK267475] | – | 88.7%
O=C(Nc1cccc(Cl)c1)c1cccc(NC(=O)c2ccccc2C(=O)O)c1 [CBK287122] | – | 81.8%
Cn1c(=O)oc2cc(S(=O)(=O)NCCC(=O)O)ccc21 [CBK267567] | – | 89.3%
CC(C)(C)NC(=O)CCn1c(-c2ccncc2)cc2cccnc21 [CBK282620] | – | 95.4%
CCCC(=O)c1ccc(S(=O)(=O)N2CCCN(Cc3ccc(C#N)cc3)CC2)cc1 [CBK062895] | – | 106%
CCCOc1ccc(-c2nnn(CC(=O)OCC)n2)cc1 [CBK068817] | – | 98.8%
CCOc1ccc(-c2n[nH]c(=S)n2CCC(=O)N2CCCN(Cc3ccc(C#N)cc3)CC2)cc1 [CBK297893] | – | 95.8%
O=C1NC2CS(=O)(=O)CC2N1Cc1ccccc1 (stereo not shown) [CBK009306] | – | 85.7%
O=C(C(OCC(F)(F)F)c1ccccc1)N1CCN(c2nccs2)CC1 (stereo not shown) [CBK298299] | – | 91.9%
CCN(CC)CCOC(=O)c1ccc(N)cc1 [CBK004330C] | – | 84.5%
CN(CC(=O)O)C(=O)OCc1ccccc1 [CBK012752] | – | 101%
O=C1CCC(=O)N1CCOc1nccnc1N1CCNCC1 [CBK074030T] | – | 97.6%
COc1ccc2c(c1)c1nc(C)sc1n2CCN1CCCCC1 [CBK269909C] | – | 93.3%
Cn1cc([C@H]2C[C@@H](O)[C@@H](CO)O2)c(=O)[nH]c1=O [CBK201171] | – | 88.9%
Cc1ccc(C(=O)N2CCC(Cc3ccccc3-c3ccccc3)(C(=O)N(C)C)CC2)s1 [CBK285677] | – | 107%
Cc1ccc2c(C)nc(Nc3nc(CSc4nnc(C)s4)cc(=O)[nH]3)nc2c1 [CBK269027] | – | 87.1%

Compound | viability at 28.5 h, 10 µM (bulk resorufin, single well) | viability at 28.5 h, 10 µM
O=C(O)CC[n+]1c(/C=C/Nc2ccccc2)oc2ccccc21 [CBK260898B] | – | 93.3%
Cc1cccc(N(CC(O)CN2C(=O)NC(C)(C)C2=O)S(=O)(=O)c2ccccc2)c1 (stereo not shown) [CBK263582] | – | 103%
S=c1[nH]nc(Cc2cccc3ccccc23)n1-c1ccccc1 [CBK265052] | – | 97.3%
CCOc1ccc(CNCc2ccc(C(=O)O)cc2)cc1OC [CBK269590C] | – | 87.3%
CNCCOc1ncccc1OCc1ccccc1 [CBK036306] | – | 100%
O[C@@H]1C[C@@H](c2nc(-c3ccncc3)no2)N(Cc2ccc(F)cc2)C1 [CBK288838] | – | 94.3%
Cc1ccccc1Sc1cc(C(F)(F)F)ccn1 [CBK115233] | – | 94.4%
Cc1nc(S(=O)(=O)Nc2nc(C(C)C)ns2)cn1C [CBK051323] | – | 107%
O=C(Cc1c[nH]c2ccccc12)N1CCC2(CCCN(C(=O)c3ccc(OC(F)(F)F)cc3)C2)C1 (stereo not shown) [CBK131579] | – | 97.8%
CC(C)NC(=O)Nc1ccc(C(=O)N(CCC#N)Cc2ccco2)cc1 [CBK305999] | – | 82.3%
O=C(O)CCc1ccc(-c2ccc(Nc3cccnc3)nc2)cc1 [CBK037768] | – | 106%
COCCn1c(=O)[nH]c2ncc(-c3ccc4c(c3)OCO4)nc21 [CBK064164] | – | 95.8%
CO/N=C(\C(=O)O)c1cn2cccnc2n1 [CBK262252] | – | 91.5%
COc1ccc(NC(=O)CSc2nc3c(N)ncnc3[nH]2)cc1 [CBK218441] | – | 91.4%
CC(C)COC(=O)n1ccc(C(=O)N2CCCCC2)n1 [CBK058828] | – | 84.9%
NNC(=O)CSc1nnc(-c2ccc(Cl)cc2)n1-c1ccccc1 [CBK263010] | – | 81.3%
CCC(C)[C@H](NC(=O)N1CCN(C(=O)c2cc3ccccc3[nH]2)CC1)C(=O)O (stereo partly shown) [CBK286725] | – | 91%
Nc1nnc(CSc2cccc3cccnc23)o1 [CBK021397] | – | 108%
CC(C)Cn1cnc(S(=O)(=O)N2CCC(Cc3ccccc3)CC2)c1 [CBK306273] | – | 92.3%
Cc1cc(Cc2ccc(Cl)cc2)cc(C2CCN(C(=O)Cc3csc(C)n3)CC2)n1 [CBK286526] | – | 88.5%
CC(C)c1ccc(CN2CCCN(c3cc(OCCc4c[nH]c5ccccc45)ncn3)CC2)cc1 [CBK083280T] | – | 106%
Cn1cc(-c2nc(C3CCCCCN3C(=O)c3cccnc3)no2)cn1 (stereo not shown) [CBK305387] | – | 87.9%

— paper PMC12040169 (PLOS Biology, 2025)
